Patent US20230322744A1, “COMPOUNDS AS GLP-1R AGONISTS” (Terns Pharmaceuticals, Inc., priority 2020, published 2023)

Molecular target: wild-type human GLP-1R (Homo sapiens, UniProt P43220)
Assay: GLP-1R Cell Assay 1 (cAMP Hunter CHO-K1 GLP1R Gs cell line, HitHunter cAMP assay)
Assay type: cell-based
Conditions: agonist activity, cellular cAMP, CHO-K1 overexpressing human GLP-1R; normalized to Exendin-4; Table 3; no stereo designation = tested as mixture of stereoisomers
Protocol: GLP-1R mediated agonist activity was determined using the cAMP Hunter CHO-K1 GLP1R Gs cell line (DiscoverX, cat #95-0062C2), a stable CHO-K1 derived cell lines overexpressing naturally Gs coupled wild-type human GLP-1R (accession number: NM_002062.3). GLP-1R agonism in this cell line was detected by measuring cellular cAMP levels using the HitHunter cAMP assay kit (cat #90-0075SM2), a homogenous, gain-of-signal competitive immune assay based on Enzyme Fragment Complementation (EFC) technology. In this system cellular cAMP competes with exogenous labeled cAMP (ED-cAMP) for binding to an anti-cAMP antibody. […] The luminescent signal is directly proportional to the amount of cellular cAMP.
For compound testing, cells were seeded in a total volume of 20 μL in white walled, 384-well microplates and incubated at 37° C. prior to compound testing. Prior to compound addition, cell culture media was removed by aspiration and replaced with 15 μL reagent buffer (2:1 HBSS/10 mM HEPES: cAMP XS+Ab reagent). […] Microplates were read on a PerkinElmer Envision instrument. Compound activity was analyzed using CBIS data analysis suite (ChemInnovation). Percent activity was calculated based on duplicate assay runs and normalized to the positive control Exendin-4, a GLP-1R peptide agonist, using the following formula: […]

Chain of wild-type human GLP-1R (P43220 24-463): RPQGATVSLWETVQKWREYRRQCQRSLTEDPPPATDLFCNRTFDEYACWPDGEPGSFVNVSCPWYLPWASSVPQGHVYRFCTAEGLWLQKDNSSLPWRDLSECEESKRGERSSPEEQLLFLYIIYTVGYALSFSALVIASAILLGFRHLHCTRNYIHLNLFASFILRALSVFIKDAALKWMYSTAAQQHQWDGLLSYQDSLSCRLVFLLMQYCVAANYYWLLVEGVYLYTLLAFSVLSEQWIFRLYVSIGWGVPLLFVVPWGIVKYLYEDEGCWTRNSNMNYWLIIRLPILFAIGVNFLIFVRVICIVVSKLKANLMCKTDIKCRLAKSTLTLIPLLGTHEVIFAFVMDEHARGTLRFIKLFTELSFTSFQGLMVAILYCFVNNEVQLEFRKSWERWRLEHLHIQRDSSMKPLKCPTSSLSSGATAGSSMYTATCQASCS

EC50: 59.4 nM
SMILES: CCn1cncc1Cn1c(CN2CC[C@]3(c4cccnc4OCc4ccc(C#N)cc4F)C[C@@H]3C2)nc2ccc(C(=O)O)cc21 (single isomer, unassigned) [Compound 166, 2-((6-(2-((4-cyano-2-fluorobenzyl)oxy)pyridin-3-yl)-3-azabicyclo[4.1.0]heptan-3-yl)methyl)-1-((1-ethyl-1H-imidazol-5-yl)methyl)-1H-benzo[d]imidazole-6-carboxylic acid]
